According to PMC3094488 (European journal of pharmacology, 2011):
Values joined by “and” are separate entries in the source; they are usually repeats but may differ in a detail not shown here. Equal entries are not always repeated.

Key:
CB1 receptors [1] = biological target: CB1 receptors (Rattus norvegicus, UniProt P20272); assay: CB1 receptor internalization in HEK293 cells stably expressing CB1; format: cell-based; conditions: for plateau / maximal internalization in time course: 100 nM drug, up to 6 hours; for plateau / maximal internalization in time course / maximal internalization (Emax): mean ± S.E.M.; for maximal internalization (Emax) / EC50: 2 hour treatment; for maximal internalization (Emax): at 1 μM; for EC50: read-out: EC50 of CB1 internalization, mean (95% CI)
CB1 receptors [2] = biological target: T1, CB1 receptors (Mus musculus, UniProt P47746); assay: Inhibition of EPSCs; format: cell-based; conditions: for maximal suppression of EPSC, % of baseline: at 1 μM, mean ± S.E.M.; for IC50: read-out: IC50 of EPSC suppression, autaptic hippocampal neurons, mean (95% CI)
CB1 receptors [3] = biological target: T1, CB1 receptors; conditions: at 1 μM; ref Atwood et al., 2010; cited from earlier work

CB1 receptors (Rattus norvegicus, UniProt P20272), sequence (P20272 whole entry): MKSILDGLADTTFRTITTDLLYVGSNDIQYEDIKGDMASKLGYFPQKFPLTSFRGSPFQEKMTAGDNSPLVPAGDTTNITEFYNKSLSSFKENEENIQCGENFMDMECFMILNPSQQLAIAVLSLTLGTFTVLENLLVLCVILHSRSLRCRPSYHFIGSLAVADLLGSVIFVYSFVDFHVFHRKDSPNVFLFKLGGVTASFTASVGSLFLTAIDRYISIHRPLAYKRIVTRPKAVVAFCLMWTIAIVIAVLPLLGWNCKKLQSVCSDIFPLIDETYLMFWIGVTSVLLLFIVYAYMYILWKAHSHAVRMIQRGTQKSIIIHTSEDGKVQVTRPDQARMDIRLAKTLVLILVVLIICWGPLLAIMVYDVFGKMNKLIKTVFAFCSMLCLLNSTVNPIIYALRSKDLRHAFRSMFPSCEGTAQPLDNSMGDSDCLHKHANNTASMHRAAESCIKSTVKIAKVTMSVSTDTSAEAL
T1 sequence (P47746 whole entry): as the sequence (P20272 whole entry) above, with E95D counted along it

For `CCCCCCCC(C)(C)c1ccc([C@H]2CCC[C@@H](O)C2)c(O)c1` [CP47,497-C8], the “plateau / maximal internalization in time course” value (“plateau / maximal internalization” for short) (CB1 receptors [1]) was 51.4 ± 2.2 % of basal surface levels, the “maximal internalization (Emax)” value (CB1 receptors [1]) was 52.7 ± 4.3 % of basal surface levels and the EC50 (CB1 receptors [1]) was 0.0044 µM. The “maximal suppression of EPSC, % of baseline” value (CB1 receptors [2]) was 51.6 ± 8.0 % of baseline and 51.6 % of baseline and the IC50 (CB1 receptors [2]) was 0.0154 µM.
For `CCCCn1cc(C(=O)c2cccc3ccccc23)c2ccccc21` [JWH073], the “plateau / maximal internalization” value (CB1 receptors [1]) was 57.5 ± 3.1 % of basal surface levels, the “maximal internalization (Emax)” value (CB1 receptors [1]) was 61.2 ± 2.5 % of basal surface levels and the EC50 (CB1 receptors [1]) was 0.0456 µM. For the same compound, the “maximal suppression of EPSC, % of baseline” value (CB1 receptors [2]) was 31.5 ± 4.0 % of baseline and the IC50 (CB1 receptors [2]) was 0.0494 µM.
In the case of `CCCCCn1cc(C(=O)c2cccc3ccccc23)c2ccccc21` [JWH018], the “maximal decrease of EPSC magnitude” value (CB1 receptors [3]) is given as 48.0%, the “plateau / maximal internalization” value (CB1 receptors [1]) is given as 50.7 ± 2.6 % of basal surface levels and the “maximal internalization (Emax)” value (CB1 receptors [1]) is given as 45.2 ± 2.0 % of basal surface levels. It also gave an EC50 (CB1 receptors [1]) of 0.0101 µM.
With `CCCCCCCC(C)(C)c1ccc([C@@H]2CCC[C@@H](O)C2)c(O)c1` [trans-CP47,497-C8] the “plateau / maximal internalization” value (CB1 receptors [1]) was 47.7 ± 3.1 % of basal surface levels, the “maximal internalization (Emax)” value (CB1 receptors [1]) was 54.9 ± 3.7 % of basal surface levels and the EC50 (CB1 receptors [1]) was 0.0027 µM.
With `CCCCCCCC(C)(C)c1ccc([C@H]2CCC[C@@H](O)C2)c(O)c1` [cis-CP47,497-C8] the “plateau / maximal internalization” value (CB1 receptors [1]) was 48.4 ± 2.4 % of basal surface levels, the “maximal internalization (Emax)” value (CB1 receptors [1]) was 53.8 ± 2.4 % of basal surface levels and the EC50 (CB1 receptors [1]) was 0.0019 µM.
